Laboratory results from patent US6057371A, “Sigma receptor ligands and the use thereof” (Virginia Commonwealth University, priority 1992, dated 2000).
“And” between values parts separate entries of the source, which are not always exact repeats. Equal entries are not always repeated. Where two headings read alike, the source gives them in different places.

Tests used:
5-HT1A receptor = target: T1, 5-HT1A receptor (Rattus norvegicus, UniProt P19327); assay: biochemical; type: binding; design: 47: 529-540 (1986); from tissue; host or cells: brain tissue, inferred from the cited method (rat frontal cortex); conditions: for IC50: read-out: 5-HT1A IC50
T1 sequence (P19327 1-422): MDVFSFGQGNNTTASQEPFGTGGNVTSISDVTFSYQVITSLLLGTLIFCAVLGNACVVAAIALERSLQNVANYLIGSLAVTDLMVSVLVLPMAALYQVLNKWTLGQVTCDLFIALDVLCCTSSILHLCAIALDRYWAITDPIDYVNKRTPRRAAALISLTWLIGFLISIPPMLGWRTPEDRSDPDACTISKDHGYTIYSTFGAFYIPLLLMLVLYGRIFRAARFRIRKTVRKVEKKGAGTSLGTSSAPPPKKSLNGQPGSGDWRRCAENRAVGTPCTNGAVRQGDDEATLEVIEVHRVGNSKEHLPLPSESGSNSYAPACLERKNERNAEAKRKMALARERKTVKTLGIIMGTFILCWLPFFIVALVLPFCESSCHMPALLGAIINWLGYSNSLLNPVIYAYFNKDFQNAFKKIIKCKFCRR
Protocol: Further sigma receptor binding assays against [^3 H]DTG and 5HT-1A binding assays were conducted according to the procedure outlined in the previous examples.

sigma-1 binding site = target: T2, sigma-1 binding site (Cavia porcellus, UniProt Q60492); assay: biochemical; design: species or system guinea pig; conditions: for Ki: read-out: SIGMA-1 KI vs. 3H-PENTAZOCINE MEAN
T2 construct: Guinea pig whole membrane preparations (P2 microsomal fraction); from tissue; host or cells: guinea pig membranes (P2 microsomal fraction), as described by Weber et al; brain inferred from the sister test b489
Protocol: [^3 H]DTG was purchased from DuPont/NEN.
The radioactivity on the filters was determined by scintillation spectrometry at an efficiency of about 50% using Cytoscint (ICN) scintillation fluid.

sigma-2 binding site [1] = target: T3, sigma-2 binding site (Cavia porcellus, UniProt H0V073); assay: biochemical; design: species or system guinea pig; conditions: for Ki: Table 10, read-out: SIGMA-2 KI vs. 3H-DTG + PENTAZOCINE MEAN; for reduction in sigma-2 affinity vs. cmp. #1: Example 9
T3 construct: Guinea pig whole membrane preparations (P2 microsomal fraction); from tissue; host or cells: guinea pig membranes (P2 microsomal fraction), as described by Weber et al; brain inferred from the sister test b489
T3 sequence (H0V073 1-176): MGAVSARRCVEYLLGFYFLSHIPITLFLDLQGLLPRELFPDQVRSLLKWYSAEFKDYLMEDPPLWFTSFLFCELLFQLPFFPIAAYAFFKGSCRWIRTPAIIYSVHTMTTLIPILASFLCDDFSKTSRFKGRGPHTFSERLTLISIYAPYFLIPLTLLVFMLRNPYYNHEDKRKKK
Protocol: (§4) For the standard equilibrium assay, the mixtures were incubated for 30 min. at room temperature, then filtered and the radioactivity determined as described above.

PCP receptor = PCP receptor binding, ^3 H-MK-801; design: species or system rat; conditions: Table 4
Protocol: PCP receptor binding assays against ^3 H-MK-801 were conducted as described by Keana et al., Proc. Natl. Acad. Sci (USA) 86: 5631-5635 (1989); Keana et al., Life Sciences 43: 965-973 (1988). For (+) ^3 H-MK-801 binding, 1 nM of radioligand was incubated with about 100 ug of thawed rat brain membrane protein for 4 hr at room temperature. The assays were carried out in 5 mM Tris/acetate and were stopped by rapid filtration through Whatman GF/B or Schleicher & Schuell no. 32 glass fiber filters (presoaked in 0.05% polyethylenamine).

Dopamine D1 receptor = target: T4, Dopamine D1 receptor (Rattus norvegicus, UniProt P18901); assay: Dopamine D1 receptor binding, [^3 H]SCH-23390, striatal membranes; conditions: Table 4
T4 construct: Rat striatal membranes were prepared from frozen tissue; from tissue; host or cells: rat striatum, frozen tissue
Protocol: (§1) Dopamine D1 and D2 receptor binding assays were performed as described by Billard et al., Life Sci. 35: 1885-1893 (1984) using [^3 H]SCH-23390 for the D1 receptors and [^3 H]domperidone for the D2 receptors (Baudry et al., Arch. Pharmacol. 308: 231-237 (1979).
(§2) Rat striatal membranes were prepared from frozen tissue by Poltron homogenization in 25 volumes of ice cold Tris-EDTA buffer (50 mM Tris-HCl, 1 mM EDTA, pH 7.4 at 4° C.). The homogenate was centrifuged at 48,000× g for 10 min. at 4° C., and the pellet was resuspended in 25 volumes of the same buffer. This suspension was then incubated at 37° C. for 15 min., followed by recentrifugation as before. The resulting pellet was resuspended in 267 volumes of assay buffer (50 mM Tris-HCl, 120 mM NaCl, 5 mM KCl, 2 mM CaCl2, 1 mM MgCl2, pH 7.4 at 37° C.).
(§3) The binding assays were conducted with 100 uL of [^3 H]SCH-23390 or [^3 H]domperidone (to give about 1 nM final), 100 uL of buffer or drug solution, and 800 uL of membrane suspension (to give about 250 ug of striatal membrane protein per assay). The tubes were incubated at 37° C. for 60 min. The assays were stopped by rapid filtration over Schleicher & Schuell #32 or Whatman GF/B glass fiber filters (presoaked in 0.5% polyethyleneimine for [^3 H]domperidone binding), followed by two 3 mL washes of ice cold buffer using a Brandel cell harvester. After vigorous shaking, the filter disks were counted at 52% efficiency in 5 mL of Cytoscint (ICN).

sigma receptor = assay: Sigma receptor binding, [^3 H]DTG, brain membranes (both sigma-1 and sigma-2 sites); design: species or system guinea pig; conditions: Table 6; [^3 H]DTG
sigma-2 binding site [2] = assay: biochemical; design: species or system guinea pig; conditions: for sigma-1/sigma-2 ratio: Example 9
Protocol: as §4

Dopamine D2 receptor = target: T5, Dopamine D2 receptor (Rattus norvegicus, UniProt P61169); assay: Dopamine D2 receptor binding, [^3 H]domperidone, striatal membranes; conditions: Table 4
T5 construct: Rat striatal membranes were prepared from frozen tissue; from tissue; host or cells: rat striatum, frozen tissue
Protocol: as §1, §2, §3

[3] = Table 13, read-out: Sigma-1 IC50

T4 sequence (P18901 whole entry): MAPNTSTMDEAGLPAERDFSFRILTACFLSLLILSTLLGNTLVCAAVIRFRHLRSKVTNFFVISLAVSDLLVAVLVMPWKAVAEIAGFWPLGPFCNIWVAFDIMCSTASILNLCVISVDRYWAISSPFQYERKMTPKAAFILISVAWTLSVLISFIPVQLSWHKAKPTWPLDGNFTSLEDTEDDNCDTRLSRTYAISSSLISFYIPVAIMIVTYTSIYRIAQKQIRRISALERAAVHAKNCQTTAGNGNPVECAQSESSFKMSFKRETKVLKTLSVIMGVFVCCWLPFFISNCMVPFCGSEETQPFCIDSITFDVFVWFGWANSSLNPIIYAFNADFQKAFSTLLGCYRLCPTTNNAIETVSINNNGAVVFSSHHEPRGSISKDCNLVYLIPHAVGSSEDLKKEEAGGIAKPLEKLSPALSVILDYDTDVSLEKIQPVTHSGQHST
T2 sequence (Q60492 whole entry): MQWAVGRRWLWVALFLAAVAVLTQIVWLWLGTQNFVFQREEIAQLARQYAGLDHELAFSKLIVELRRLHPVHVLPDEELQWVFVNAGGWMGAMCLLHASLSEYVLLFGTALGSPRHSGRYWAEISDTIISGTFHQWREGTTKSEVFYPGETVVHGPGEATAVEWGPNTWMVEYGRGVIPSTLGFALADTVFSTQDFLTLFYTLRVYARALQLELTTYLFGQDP
T5 sequence (P61169 whole entry): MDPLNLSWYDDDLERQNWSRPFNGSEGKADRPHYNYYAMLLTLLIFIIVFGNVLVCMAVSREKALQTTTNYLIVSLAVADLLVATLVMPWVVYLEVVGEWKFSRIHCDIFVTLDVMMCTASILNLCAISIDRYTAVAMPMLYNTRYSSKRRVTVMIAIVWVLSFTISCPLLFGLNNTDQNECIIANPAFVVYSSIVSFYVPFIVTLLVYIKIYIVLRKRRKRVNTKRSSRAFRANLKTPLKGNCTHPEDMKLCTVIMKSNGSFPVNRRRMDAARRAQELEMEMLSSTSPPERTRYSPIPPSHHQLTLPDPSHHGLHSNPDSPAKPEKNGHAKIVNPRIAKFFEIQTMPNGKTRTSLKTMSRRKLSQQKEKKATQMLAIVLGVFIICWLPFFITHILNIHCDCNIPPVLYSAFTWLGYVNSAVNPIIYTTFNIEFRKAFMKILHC

Row | Compound | Ratio 5-HT1A /σ (5-HT1A receptor; Table 5) | IC50 (5-HT1A receptor; Table 5) [nM] | Ki (sigma-1 binding site; Table 10) [nM] | S1/S2 Ratio (sigma-1 binding site; Table 10, sigma-1/sigma-2) | Ki (sigma-2 binding site [1]) | IC50 (PCP receptor) [nM] | Ratio 5-HT1A /σ (5-HT1A receptor) | IC50 (Dopamine D1 receptor) [nM] | other results
1 | Clc1cccc(N2CCN(CCc3ccccc3)CC2)c1 [Compound 32, 1-(3'-Chlorophenyl)-4-(2-phenylethyl)piperazine] | .80 | 8.73 | 14.9 | 0.352 | 42.4 nM | > 10000 |  |  | 
2 | COc1ccc(CC(C)NCCCc2ccccc2)cc1 (stereo not drawn) [Compound 19] |  | 114 |  |  |  | > 10000 | 7.6 | > 10000 | 
3 | O=C1c2ccccc2C(=O)N1CCCCN1CCN(c2ccccc2)CC1 [Compound 97] |  |  | 195 | 9.587 | 20.4 nM |  |  |  | IC50 (sigma receptor): 20.3 nM; sigma-1/sigma-2 ratio (sigma-2 binding site [2]): 10; ratio of sigma-1/sigma-2 (sigma-2 selective compounds) (sigma-2 binding site [2]; greater than about 10, see Table 10): greater than 10
4 | CC(Cc1cccc(C(F)(F)F)c1)NCCCc1ccccc1 (racemic) [Compound 23, (±) N-[1-(3'-Trifluoromethyl)-2-propyl]-3-phenylpropylamine] | 25 | 106 | 8.75 | 0.420 | 20.8 nM | > 10000 |  |  | IC50 (sigma-1 binding site; Table 12, read-out: IC50 (nM) at sigma-1): 8.8 nM; IC50 (sigma-2 binding site [1]; Table 17, read-out: IC50 (nM) at sigma-2): 21 nM
5 | OC1(c2ccccc2)CCN(CCCc2ccccc2)CC1 [Compound 40, 4-Hydroxy-4-phenyl-1-(3-phenylpropyl)piperidine] |  | 2960 | 0.68 |  | 9.2 nM and 7.03 nM | > 10000 | 970 | > 10000 | IC50 ratio of sigma-1/sigma-2 (sigma-1 selective compounds) (sigma-1 binding site): less than 0.1; S1/S2 Ratio (sigma-1 binding site; guinea pig, microsomes): 0.074 and 0.096
6 | COc1ccccc1N1CCN(CCCCN2C(=O)c3ccccc3C2=O)CC1 [Compound 120, N-(4-(1-phthalimido)butyl)-N'-(o-methoxyphenyl)piperazine] |  |  | 512 | 6.683 | 76.6 nM |  |  |  | IC50 (sigma receptor): 64.7 nM; sigma-1/sigma-2 ratio (sigma-2 binding site [2]): 7
7 | c1ccc(CCCNC2CCc3ccccc3CC2)cc1 [Compound 49] |  | 313 |  |  |  | > 10000 | 30 | > 10000 | 
8 | c1ccc(CCNCCCc2ccc3ccccc3c2)cc1 [Compound 41] | 7.6 | 34.7 |  |  |  | > 10000 |  | > 10000 | IC50 (Dopamine D2 receptor): 1920 ± 190 nM
9 | C[C@H](Cc1ccccc1)NCCCc1ccc2ccccc2c1 [Compound 12, R(-) N-(1-phenyl-2-propyl)-3-(2-naphthyl)propylamine] | 56 | 132 | 5.73 | 0.022 | 258 nM | > 10000 |  |  | IC50 (sigma-1 binding site; [3]): 5.7 nM; IC50 ratio of sigma-1/sigma-2 (sigma-1 selective compounds) (sigma-1 binding site; less than about 0.1, see Table 10): less than 0.1; reduction in sigma-2 affinity vs. cmp. #1 (sigma-2 binding site [1]): about 4 fold
10 | C[C@H](Cc1ccccc1)NCCCc1cccc2ccccc12 [Compound 11, R(-) N-(1-phenyl-2-propyl)-3-(1-naphthyl)propylamine] | 11 | 104 |  |  |  | > 10000 |  |  | IC50 (sigma-1 binding site; [3]): 8.6 nM; reduction in sigma-2 affinity vs. cmp. #1 (sigma-2 binding site [1]): about 4 fold
